Test results reported in patent publication US20250195498A1, “INHIBITOR OF CELLULAR PURINE NUCLEOTIDE SALVAGE PATHWAY ENZYME FOR USE IN THE TREATMENT AND/OR PREVENTION OF HELICOBACTER PYLORI INFECTION AND/OR DISEASE ASSOCIATED WITH SUCH INFECTION AND PHARMACEUTICAL COMPOSITION COMPRISING THE SAME” (UNIWERSYTET WARSZAWSKI, priority 2022, published 2025).
Converted amounts (≈) assume the structure as drawn. “And” between values parts separate entries of the source, which are not always exact repeats. Identical values can stand only once. Like-named read-outs stand apart in the source and are kept apart here.

How the values were obtained:
H. pylori strain 26695 = assay: Growth curve method / MIC in liquid culture, strain 26695; type: cell-based, Helicobacter pylori; conditions: strain 26695; for MIC: read-out: MIC; for % inhibition of H. pylori cell cultures at maximum inhibitor solubility: at maximum solubility in 3.5% DMSO; for growth inhibition: 200 μM, partially precipitated
Protocol: The representative PNP inhibitor from H. pylori included in this study was immucillin A. The experiment was conducted using the growth curve method (two-fold serial dilutions in liquid medium). The tested H. pylori strains were cultured in Petri dishes with BHI solid medium supplemented with 10% FBS and 1% H. pylori Selective Supplement antibiotic kit, in anaerostats under microaerophilic conditions (5% 02, 10% CO2, 85% N2) at 37° C. for 3 days. Liquid culture of H. pylori was conducted overnight with shaking at 37° C. under microaerophilic conditions in BHI medium supplemented with 10% FBS and 1% H. pylori Selective Supplement antibiotic kit. Subsequently, for the essential experiment of determining the minimum inhibitory concentration (MIC), double strengthened liquid BHI medium was prepared, that is, supplemented with 20% FBS and a 2% set of H. pylori Selective Supplement antibiotics.
Bacterial proliferation inhibition experiments were carried out in 24-deep-well 2 ml flat-bottomed plates at a solution volume per well of 0.5 ml. In a single well, double strengthened (relative to the concentration planned for testing) solutions of the test inhibitor and double strengthened liquid BHI medium inoculated with H. pylori (10^4-10^5 CFU/ml in the final volume in the well, corresponding to the optical density of the culture OD600=0.05) were mixed together in a 1:1 ratio.
Kanamycin at a concentration of 25 μg/ml (Irie et al., 1997) was used as a positive control, while Mili-Q deionized water and BHI medium not inoculated with bacteria were used as negative controls. Plates were shaken at 37° C., under microaerophilic conditions. […] After 24 hours, the OD600 of samples containing the negative control, i.e. with Mili-Q deionized water, was about 1.2-1.4, corresponding to a bacterial concentration of about […].
In addition, the method proposed by Knezevic et al. (2018) was used to check whether the observed OD600 was from live bacterial cells. For this purpose, an equal volume of Christensen's double strength urea broth (that is, containing twice the concentration of all components) was added to the wells after incubation, and the plates were additionally incubated for 4 hours in an oxygen atmosphere at 37° C. During incubation, in wells with urease produced by live bacteria, urea is converted to ammonia and carbon dioxide, changing the pH of the solution and thus the colour of the phenol red indicator contained in the medium (from orange to purple).
All experiments were performed in triplicate.
The experiments were carried out using the growth curve method as described in Example 3, and the results obtained for two of the compounds tested are shown in FIG. 5. As the water solubility of the compounds tested, with the exception of 2,6-diCl-Pu, is relatively poor, two experiments were carried out: the first with the maximum concentration possible under the experimental conditions in aqueous solution with a small admixture of DMSO, and the second with higher concentrations that led to partial precipitation of the compound.
The antibacterial activity of two compounds, mefloquine (in the form of hydrochloride) and quinine, described in the literature as potent in vitro inhibitors of the PNP enzyme from Plasmodium falciparum (Dziekan et al., 2019), was tested. Using a two-fold serial dilution method in liquid medium (as described in Example 3), the MIC values for mefloquine and quinine were determined against clinical H. pylori strains resistant to MTZ, CLR and MTZ+CLR (M26, M91, M92 and M93), as well as the reference H. pylori strain 26695. Four clinical H. pylori strains isolated from adults, from primary infections (the subjects had never previously been treated against H. pylori infection) were tested. These strains come from the collection of the Department of Microbiology of the Medical University of Wroclaw and were obtained due to collaboration with Prof. Grażyna Gościniak, MD, PhD. […]

[1] = target: T1, PNP from H. pylori strain 26695 (Helicobacter pylori, UniProt P56463); assay: Inhibition of PNP from H. pylori, spectrophotometric phosphorolysis assay; type: biochemical
T1 construct: made in house; host or cells: E. coli
T1 sequence (P56463 whole entry): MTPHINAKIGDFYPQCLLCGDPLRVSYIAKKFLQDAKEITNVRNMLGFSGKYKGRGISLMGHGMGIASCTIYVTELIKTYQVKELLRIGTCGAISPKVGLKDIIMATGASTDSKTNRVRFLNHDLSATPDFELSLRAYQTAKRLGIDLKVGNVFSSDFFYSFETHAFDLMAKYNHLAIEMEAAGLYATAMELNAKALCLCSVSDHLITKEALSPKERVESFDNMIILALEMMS
Text: The specific activity of PNP is usually determined using inosine as a substrate, in an assay in which the phosphorolysis product, hypoxanthine, is oxidized to uric acid in a reaction catalysed by xanthine oxidase. However, in the inhibition assay of PNP from H. pylori strain 26695, 7-methylguanosine (m^7Guo) and guanosine (Guo) were used as nucleoside substrates to avoid potential inhibition of xanthine oxidase by the test compounds. Phosphorolysis of these two substrates can be observed using a direct spectrophotometric method in a known manner.
Enzymatic activity was studied in a quartz cuvette with an optical path length of 1 cm or 0.5 cm. The absorbance of the reaction mixture, at the observation wavelength, never exceeded 1.2. The reaction volume was 1 ml or 1.4 ml in cuvettes with optical path lengths of 1 cm and 0.5 cm, respectively. The reaction mixture contained 50 mM Hepes/NaOH buffer, pH 7.0, 50 mM phosphate buffer, pH 7.0 (unless otherwise indicated), nucleoside substrate and inhibitor (with the latter not added to the reference/control reactions). Reactions were usually initiated by adding the enzyme to a cuvette containing the other reaction components. However, in cases where possible slow formation of an inhibitor-enzyme complex was checked, a second variant was also used involving incubation of the enzyme in a reaction mixture containing the inhibitor but lacking the substrate, 7-methylguanosine, and initiation of the reaction by adding this substrate.
In order to determine the inhibition constants and determine the molecular mechanism of inhibition, equations describing different mechanisms of inhibition were fitted to the obtained experimental data. GraphPad Prism 8 program was used. The model best describing the obtained data was selected based on the sum of squares of deviations using the F test for models with different number of parameters and the Akaike criterion (AIC) for models with the same number of parameters.
The following equations were used to describe competitive inhibition, characterized by the inhibition constant Kic, [1], uncompetitive, characterized by the inhibition constant Kiu, [2], non-competitive, characterized by the inhibition constant Kin, [3], and mixed, characterized by the inhibition constants Kiu and Kic, [4] (Segel, 1993):
The last equation can also be represented in the following form, as used by GraphPad Prism software, where Kiu=alpha Kic:
Immucillin A was chosen as the most promising one for potential pharmacological use in combating H. pylori infection because immucillin A has an amino substituent at position 6 of the 9-dazapurine ring, while PNP found in the human body requires a substituent at this position having electron-pairs-hydrogen bond acceptors, such as a substituent in the form of a keto group, to strongly bind the ligand. According to the invention, it is therefore believed that immucillin A will not interact with the host PNP, and thus allow selective inhibition of the PNP from H. pylori. Using the methods described above, the effect of immucillin A on the rate of the 7-methylguanosine (m^7Guo) phosphorolysis reaction catalysed by PNP from H. pylori was examined (FIG. 1). Since it is known (Schramm, 2018) that immucillins form a strongly bound complex with the enzyme relatively slowly, reactions were initiated by adding the substrate, m^7Guo, to a cuvette in which the enzyme was incubated with the inhibitor, as described in Example 1.
Data analysis was also performed as described in this Example. The range of substrate concentrations tested was 10-200 μM or 10-280 μM (shown in FIG. 4), and the range of inhibitor concentrations was chosen according to the observed degree of inhibition of the reaction, in order to obtain a significant degree of inhibition that allows determination of the inhibition mechanism and determination of inhibition constants (see FIG. 4). […]

[2] = Helicobacter pylori, inhibitor partially precipitated, actual dissolved concentration lower
[3] = 7-methylguanosine substrate, 25° C., pH 7.0, 50 mM phosphate, mixed type model, read-out: Kic
[4] = 7-methylguanosine substrate, 25° C., pH 7.0, 50 mM phosphate, mixed type model, read-out: Kiu
[5] = 7-methylguanosine substrate, mixed type model
[6] = 7-methylguanosine substrate, 25° C., pH 7.0, 50 mM phosphate, non-competitive model, read-out: Kin
[7] = 7-methylguanosine substrate, 25° C., pH 7.0, 50 mM phosphate, uncompetitive model, read-out: Kiu

| Structure (SMILES) | % inhibition of H. pylori cell cultures at maximum inhibitor solubility (H. pylori strain 26695) [%] | Ki [1, 3] [µM] | Ki [1, 4] [µM] | alpha = Kiu/Kic [1, 5] | Ki [1, 6] [µM] | other results |
| --- | --- | --- | --- | --- | --- | --- |
| Clc1nc(Cl)c2[nH]cnc2n1 [2,6-diCl-Pu, 2,6-dichloropurine] | 93 | – | – | – | – | MIC (H. pylori strain 26695; Helicobacter pylori): 473 µg/mL and 2500 µM |
| c1ccc(CSc2ncnc3nc[nH]c23)cc1 [6BnS-Pu, 6-benzylthiopurine] | 83 | – | – | – | – | MIC (H. pylori strain 26695; [2]): 48 µg/mL and 200 µM; growth inhibition (H. pylori strain 26695): Complete inhibition |
| OC[C@H]1O[C@@H](n2cnc3c(SCc4ccccc4)nc(Cl)nc32)C[C@@H]1O [6BnS-2Cl-Pu-9dr, 2-chloro-6-benzylthiopurine-2′-deoxy-9-ribofuranoside] | 5 | 6.2 ± 2.4 | 2.9 ± 0.5 | 0.47 ± 0.24 | – | alpha = Kiu/Kic ([1]; guanosine as a substrate, mixed type model): 0.16 ± 0.08; Ki ([1]; guanosine as a substrate, mixed type model, read-out: Kic): 12.6 ± 5.7 µM; Ki ([1]; guanosine as a substrate, mixed type model, read-out: Kiu): 2 ± 0.2 µM; growth inhibition (H. pylori strain 26695): complete growth inhibition |
| Clc1nc(Cl)c2[nH]cnc2n1 [2,6-dichloropurine] | – | 20 ± 4.9 | 23.5 ± 3.5 | 1.17 ± 0.44 | 22.2 ± 1.4 | – |
| NC[C@H]1O[C@H](O[C@H]2[C@H](O)[C@@H](O[C@H]3O[C@H](CO)[C@@H](O)[C@H](N)[C@H]3O)[C@H](N)C[C@@H]2N)[C@H](O)[C@@H](O)[C@@H]1O [Kanamycin, kanamycin] | – | – | – | – | – | inhibition at 52 µM (H. pylori strain 26695; Helicobacter pylori, kanamycin 25 μg/ml (52 μM), positive control, read-out: % inhibition of H. pylori cell cultures): 92 to 96% |
| Nc1ncnc2c([C@@H]3N[C@H](CO)C(O)[C@@H]3O)c[nH]c12 (stereo partly shown) [immucillin A] | – | – | – | – | – | Ki [1]: 0.0013 ± 0.0002 µM; MIC (H. pylori strain 26695; Helicobacter pylori): 80 µM (≈ 21.2 µg/mL) |
| Clc1nc(OCc2ccccc2)c2[nH]cnc2n1 [6BnO-2Cl-Pu, 6-benzyloxy-2-chloropurine] | 35 | 18.3 ± 7.3 | 4.6 ± 0.5 | 0.25 ± 0.12 | 6.5 ± 0.4 | Ki [1, 7]: 3.8 ± 0.3 µM; inhibition at 350 µM (H. pylori strain 26695; Helicobacter pylori, 350 μM (91 μg/ml), inhibitor partially precipitated, read-out: % inhibition of H. pylori cell cultures): 75% |
| Clc1nc(SCc2ccccc2)c2[nH]cnc2n1 [6BnS-2Cl-Pu, 6-benzylthio-2-chloropurine] | 92 | 13.2 ± 10.7 | 2.1 ± 0.3 | 0.16 ± 0.15 | – | Ki [1, 7]: 1.8 ± 0.2 µM; MIC (H. pylori strain 26695; [2]): 69 µg/mL and 250 µM |
| c1ccc(CSc2ncnc3nc[nH]c23)cc1 [6-benzylthiopurine] | – | 7.5 ± 1.3 | 8.1 ± 0.7 | 1.07 ± 0.27 | 7.9 ± 0.4 | – |
